Earlier results as cited in patent US20230203322A1, “NON-ABLATIVE MULTI-LAYER COATINGS FOR BOAT PROPELLERS THAT PREVENT WATER-DERIVED DAMAGE, CORROSION, AND DETERIORATION FROM BIOLOGICAL CHEMICAL PROCESSES” (priority 2021, published 2023).

Experiments:
[1] = test system: barnacles; settings: copper release
[2] = test system: biofouling animal organisms

[Cu] [copper]
minimal effective rate known to be effective for eradicating barnacles [1]: 4 × 10^-6 micrograms per cm^2 per day

[O]=[Zn] [zinc oxide]
effect on biofouling animal organisms ([2]; by itself): only a weak effect | synergistic enhancement of the biofouling anti-proliferating effect of copper and its alloys and salts ([2]; used in combination with the copper containing-substance): up to 200 times
